Experimental data reported in patent US9409952B2, “Peptide-compound cyclization method” (Chugai Seiyaku Kabushiki Kaisha, priority 2011, dated 2016).
Starred links: 1 amine or outer side, 2 acyl side, 3 side chain; linkers in the order of their positions; H or OH if unused. Positions of bridges follow the written chain, without caps; N, C: chain ends. Non-standard residues stand in square brackets, D forms with d. Residues, ends and D or L forms follow the SMILES beside them. *: point of attachment. NMeF = CN[C@@H](Cc1ccccc1)C(=O)O; NMeGABA = CN(CCCC(=O)[*:2])[*:1]; NMeI = CC[C@H](C)[C@H](NC)C(=O)O; NMeβAla = CN(CCC(=O)[*:2])[*:1]; NMeL = CN[C@@H](CC(C)C)C(=O)O; NMeV = CN[C@H](C(=O)O)C(C)C; NMeA = CN[C@@H](C)C(=O)O; Piperidide = C1CCN(*)CC1; dNMeA = CN[C@H](C)C(=O)O; Sar = CNCC(=O)O

Columns and labels:
[1] = PAMPA (parallel artificial membrane permeability assay); type: in vitro ADME; details: membrane permeation rate (Pe), 50 mM MOPSO buffer pH 6.5 with 5.0% glycocholic acid, 37° C., 18 hours; for Papp at 18 hours, 50 µM: PAMPA, read-out: iPAMPA Pe
How it was run: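 Artificial membrane was 10% (w/v) egg lecithin plus 0.5% (w/v) cholesterol in dodecane on a PVDF filter. A 10 mM DMSO stock was added at 0.5% (v/v) to donor buffer (50 mM MOPSO, pH 6.5, 5.0% glycocholic acid). After 18 h at 37 °C, LC/MS or LC/UV gave donor and acceptor levels for Pe.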

[2] = Metabolic stability in human hepatic microsome; type: in vitro ADME; details: microsomes, pH 7.4; human hepatic microsome, NADPH(+); read-out: CL NADPH(+)

CC[C@H](C)[C@H]1C(=O)N[C@@H]([C@@H](C)O)C(=O)N(C)CC(=O)N[C@H](C(=O)N2CCCCC2)CC(=O)N[C@H](C(C)C)C(=O)N[C@@H](CC(C)C)C(=O)N(C)[C@@H](CC(C)C)C(=O)N(C)[C@@H](Cc2ccccc2)C(=O)N[C@@H](C)C(=O)N(C)[C@@H](Cc2ccccc2)C(=O)N(C)[C@@H](CC(C)C)C(=O)N1C [DP-232] ([dV]L[NMeL][NMeF]A[NMeF][NMeL][NMeI]T[Sar]D-Piperidide; lactam N-11)
Papp at 18 hours, 50 µM [1]: 18 ×10⁻⁶ cm/s | microsomal CLint at 1 uM [2]: 77 µL/min/mg

CC[C@H](C)[C@H]1C(=O)N(C)CC(=O)N(C)[C@@H](C(C)C)C(=O)N[C@@H]([C@@H](C)O)C(=O)N[C@H](C(=O)N2CCCCC2)CC(=O)N[C@H](C(C)C)C(=O)N(C)[C@@H](C)C(=O)N(C)[C@@H](CC(C)C)C(=O)N[C@@H](CC(C)C)C(=O)N(C)[C@@H](Cc2ccccc2)C(=O)N[C@@H](Cc2ccccc2)C(=O)N1C [DP-233] ([dV][NMeA][NMeL]L[NMeF]F[NMeI][Sar][NMeV]TD-Piperidide; lactam N-11)
Papp at 18 hours, 50 µM [1]: 32 ×10⁻⁶ cm/s | microsomal CLint at 1 uM [2]: 39 µL/min/mg

CC[C@H](C)[C@H]1C(=O)N(C)[C@@H](CC(C)C)C(=O)N[C@@H]([C@@H](C)O)C(=O)N[C@H](C(=O)N2CCCCC2)CC(=O)N[C@H](C(C)C)C(=O)N(C)[C@@H](C)C(=O)N(C)[C@@H](CC(C)C)C(=O)N(C)[C@@H](Cc2ccccc2)C(=O)N[C@@H](C)C(=O)N(C)[C@@H](CC(C)C)C(=O)N(C)[C@@H](Cc2ccccc2)C(=O)N1C [DP-234] ([dV][NMeA][NMeL][NMeF]A[NMeL][NMeF][NMeI][NMeL]TD-Piperidide; lactam N-11)
Papp at 18 hours, 50 µM [1]: 2 ×10⁻⁶ cm/s | microsomal CLint at 1 uM [2]: 91 µL/min/mg

CC[C@H](C)[C@H]1C(=O)N(C)[C@@H](CC(C)C)C(=O)N[C@@H](C)C(=O)N(C)[C@@H](CC(C)C)C(=O)N(C)[C@@H](Cc2ccccc2)C(=O)N[C@@H]([C@@H](C)O)C(=O)N(C)[C@@H](Cc2ccccc2)C(=O)N(C)[C@@H](CC(C)C)C(=O)N(C)[C@@H](C)C(=O)N[C@H](C(=O)N2CCCCC2)CC(=O)N[C@H](C(C)C)C(=O)N1C [DP-235] ([dV][NMeI][NMeL]A[NMeL][NMeF]T[NMeF][NMeL][NMeA]D-Piperidide; lactam N-11)
Papp at 18 hours, 50 µM [1]: 9 ×10⁻⁶ cm/s | microsomal CLint at 1 uM [2]: 58 µL/min/mg

CC[C@H](C)[C@H]1C(=O)NCC(=O)N(C)[C@@H](CC(C)C)C(=O)N[C@@H]([C@@H](C)O)C(=O)N2CCC[C@H]2C(=O)N[C@@H](Cc2ccccc2)C(=O)N[C@H](C(=O)N2CCCCC2)CC(=O)N(C)[C@@H](C)C(=O)N[C@@H](Cc2ccccc2)C(=O)N(C)[C@@H](CC(C)C)C(=O)N[C@@H](CC(C)C)C(=O)N1C [DP-236] ([NMeA]F[NMeL]L[NMeI]G[NMeL]TPFD-Piperidide; lactam N-11)
iPAMPA Pe [1]: 7.0E−05 | microsomal CLint at 1 uM [2]: 79 µL/min/mg

CC(C)C[C@@H]1NC(=O)[C@H](CC(C)C)N(C)C(=O)[C@H](C)NC(=O)[C@H](C(C)C)N(C)C(=O)[C@H](C)N(C)C(=O)CN(C)C(=O)[C@H]([C@@H](C)O)NC(=O)[C@H](Cc2ccccc2)NC(=O)[C@H](CC(C)C)N(C)C(=O)[C@H](C)N(C)C(=O)C[C@@H](C(=O)N2CCCCC2)NC1=O [DP-237] ([NMeA][NMeL]FT[Sar][NMeA][NMeV]A[NMeL]LD-Piperidide; lactam N-11)
Papp at 18 hours, 50 µM [1]: 12 ×10⁻⁶ cm/s | microsomal CLint at 1 uM [2]: 37 µL/min/mg

CC[C@H](C)[C@@H]1NC(=O)[C@H](Cc2ccccc2)N(C)C(=O)[C@H]([C@@H](C)O)NC(=O)[C@H](C(C)C)N(C)C(=O)[C@H](CC(C)C)NC(=O)[C@H](CC(C)C)N(C)C(=O)CCN(C)C(=O)C[C@@H](C(=O)N2CCCCC2)NC(=O)[C@H](C)NC(=O)[C@H](C)N(C)C(=O)[C@H](Cc2ccccc2)NC1=O [DP-238] ([NMeβAla][NMeL]L[NMeV]T[NMeF]IF[NMeA]AD-Piperidide; lactam N-11)
Papp at 18 hours, 50 µM [1]: 19 ×10⁻⁶ cm/s | microsomal CLint at 1 uM [2]: 129 µL/min/mg

CC[C@H](C)[C@H]1C(=O)N[C@@H](Cc2ccccc2)C(=O)N[C@@H]([C@@H](C)O)C(=O)N2CCC[C@H]2C(=O)N[C@@H](Cc2ccccc2)C(=O)N[C@H](C(=O)N2CCCCC2)CC(=O)N(C)CCC(=O)N(C)[C@@H](CC(C)C)C(=O)N(C)[C@@H](CC(C)C)C(=O)N[C@@H](CC(C)C)C(=O)NCC(=O)N1C [DP-239] ([NMeβAla][NMeL][NMeL]LG[NMeI]FTPFD-Piperidide; lactam N-11)
Papp at 18 hours, 50 µM [1]: 25 ×10⁻⁶ cm/s | microsomal CLint at 1 uM [2]: 109 µL/min/mg

CC[C@H](C)[C@H]1C(=O)N(C)[C@@H](CC(C)C)C(=O)N[C@H](C(=O)N2CCCCC2)CC(=O)N(C)CCC(=O)N(C)[C@@H](CC(C)C)C(=O)N[C@@H]([C@@H](C)O)C(=O)N(C)[C@@H](C)C(=O)N(C)[C@@H](Cc2ccccc2)C(=O)N[C@@H](C)C(=O)N(C)[C@@H](Cc2ccccc2)C(=O)N[C@@H](CC(C)C)C(=O)N1C [DP-240] ([NMeβAla][NMeL]T[NMeA][NMeF]A[NMeF]L[NMeI][NMeL]D-Piperidide; lactam N-11)
Papp at 18 hours, 50 µM [1]: 38 ×10⁻⁶ cm/s | microsomal CLint at 1 uM [2]: 125 µL/min/mg

CC[C@H](C)[C@H]1C(=O)N(C)[C@@H](Cc2ccccc2)C(=O)N[C@@H]([C@@H](C)O)C(=O)N(C)[C@@H](C)C(=O)N(C)[C@@H](C(C)C)C(=O)N(C)[C@@H](CC(C)C)C(=O)N[C@@H](C)C(=O)N[C@H](C(=O)N2CCCCC2)CC(=O)N(C)CCC(=O)N[C@@H](Cc2ccccc2)C(=O)N(C)[C@@H](CC(C)C)C(=O)N1C [DP-241] ([NMeβAla]F[NMeL][NMeI][NMeF]T[NMeA][NMeV][NMeL]AD-Piperidide; lactam N-11)
Papp at 18 hours, 50 µM [1]: 26 ×10⁻⁶ cm/s | microsomal CLint at 1 uM [2]: 30 µL/min/mg

CC[C@H](C)[C@@H]1NC(=O)[C@H](C)N(C)C(=O)[C@H]([C@@H](C)O)NC(=O)[C@H](C(C)C)N(C)C(=O)[C@H](CC(C)C)NC(=O)[C@H](CC(C)C)N(C)C(=O)[C@@H](C)N(C)C(=O)C[C@@H](C(=O)N2CCCCC2)NC(=O)[C@H](Cc2ccccc2)NC(=O)[C@H](C)NC(=O)[C@H](Cc2ccccc2)N(C)C1=O [DP-242] ([dNMeA][NMeL]L[NMeV]T[NMeA]I[NMeF]AFD-Piperidide; lactam N-11)
Papp at 18 hours, 50 µM [1]: 29 ×10⁻⁶ cm/s | microsomal CLint at 1 uM [2]: 43 µL/min/mg

CC(C)C[C@@H]1NC(=O)[C@H](CC(C)C)N(C)C(=O)[C@H](C)NC(=O)[C@H](C(C)C)N(C)C(=O)[C@H](C)N(C)C(=O)CN(C)C(=O)[C@H]([C@@H](C)O)NC(=O)[C@H](Cc2ccccc2)NC(=O)[C@H](CC(C)C)N(C)C(=O)[C@@H](C)N(C)C(=O)C[C@@H](C(=O)N2CCCCC2)NC1=O [DP-243] ([dNMeA][NMeL]FT[Sar][NMeA][NMeV]A[NMeL]LD-Piperidide; lactam N-11)
Papp at 18 hours, 50 µM [1]: 8.4 ×10⁻⁶ cm/s | microsomal CLint at 1 uM [2]: 32 µL/min/mg

CC[C@H](C)[C@H]1C(=O)N(C)[C@@H](Cc2ccccc2)C(=O)N(C)[C@@H](CC(C)C)C(=O)N[C@H](C(=O)N2CCCCC2)CC(=O)N(C)[C@H](C)C(=O)N(C)[C@@H](CC(C)C)C(=O)N[C@@H]([C@@H](C)O)C(=O)N(C)[C@@H](C)C(=O)N[C@@H](C)C(=O)N(C)[C@@H](Cc2ccccc2)C(=O)N[C@@H](CC(C)C)C(=O)N1C [DP-244] ([dNMeA][NMeL]T[NMeA]A[NMeF]L[NMeI][NMeF][NMeL]D-Piperidide; lactam N-11)
Papp at 18 hours, 50 µM [1]: 31 ×10⁻⁶ cm/s | microsomal CLint at 1 uM [2]: 16 µL/min/mg

CC[C@H](C)[C@@H]1NC(=O)[C@H](C)N(C)C(=O)[C@H]([C@@H](C)O)NC(=O)[C@H](C(C)C)N(C)C(=O)[C@H](CC(C)C)NC(=O)[C@H](CC(C)C)N(C)C(=O)CN(C)C(=O)C[C@@H](C(=O)N2CCCCC2)NC(=O)[C@H](C)NC(=O)[C@H](Cc2ccccc2)NC(=O)[C@H](Cc2ccccc2)N(C)C1=O [DP-245] ([Sar][NMeL]L[NMeV]T[NMeA]I[NMeF]FAD-Piperidide; lactam N-11)
Papp at 18 hours, 50 µM [1]: 31 ×10⁻⁶ cm/s | microsomal CLint at 1 uM [2]: 71 µL/min/mg

CC[C@H](C)[C@H]1C(=O)N(C)[C@@H](CC(C)C)C(=O)N[C@H](C(=O)N2CCCCC2)CC(=O)N(C)CC(=O)N[C@@H](CC(C)C)C(=O)N[C@@H]([C@@H](C)O)C(=O)N(C)CC(=O)N(C)[C@@H](Cc2ccccc2)C(=O)N[C@@H](C)C(=O)N(C)[C@@H](Cc2ccccc2)C(=O)N(C)[C@@H](CC(C)C)C(=O)N1C [DP-246] ([Sar]LT[Sar][NMeF]A[NMeF][NMeL][NMeI][NMeL]D-Piperidide; lactam N-11)
Papp at 18 hours, 50 µM [1]: 41 ×10⁻⁶ cm/s | microsomal CLint at 1 uM [2]: 42 µL/min/mg

CC[C@H](C)[C@H]1C(=O)N[C@@H](CC(C)C)C(=O)N(C)[C@@H](CC(C)C)C(=O)N[C@H](C(=O)N2CCCCC2)CC(=O)N(C)CC(=O)N(C)[C@@H](CC(C)C)C(=O)N[C@@H]([C@@H](C)O)C(=O)N(C)[C@@H](C)C(=O)N[C@@H](C)C(=O)N(C)[C@@H](Cc2ccccc2)C(=O)N(C)[C@@H](Cc2ccccc2)C(=O)N1C [DP-247] ([Sar][NMeL]T[NMeA]A[NMeF][NMeF][NMeI]L[NMeL]D-Piperidide; lactam N-11)
Papp at 18 hours, 50 µM [1]: 28 ×10⁻⁶ cm/s | microsomal CLint at 1 uM [2]: 48 µL/min/mg

CC[C@H](C)[C@H]1C(=O)N(C)[C@@H](Cc2ccccc2)C(=O)N[C@@H](CC(C)C)C(=O)N[C@H](C(=O)N2CCCCC2)CC(=O)N(C)CCCC(=O)N(C)[C@@H](CC(C)C)C(=O)N[C@@H]([C@@H](C)O)C(=O)N(C)[C@@H](Cc2ccccc2)C(=O)N(C)[C@@H](CC(C)C)C(=O)N(C)[C@@H](CC(C)C)C(=O)N[C@@H](C)C(=O)N1C [DP-248] ([NMeGABA][NMeL]T[NMeF][NMeL][NMeL]A[NMeI][NMeF]LD-Piperidide; lactam N-11)
Papp at 18 hours, 50 µM [1]: 2.6 ×10⁻⁶ cm/s | microsomal CLint at 1 uM [2]: 36 µL/min/mg
